Publication PMC10815991, “Membrane-Bound Redox Enzyme Cytochrome bd-I Promotes Carbon Monoxide-Resistant Escherichia coli Growth and Respiration” (International Journal of Molecular Sciences, 2024)
Read-outs that look alike come from different tables or passages of the source.

Key:
[1] = target: T1, cytochrome bo3 (bo3-only E. coli cells) (Escherichia coli, UniProt P0ABI8); assay: O2 consumption (aerobic respiration) of bo3-only E. coli cell suspensions; assay type: cell-based; details: for IC50: read-out: apparent IC50
T1 construct: the oxidases were in vivo conditions, i.e., integrated into native bacterial membranes; endogenous in cells; host or cells: E. coli TBE025 (MG1655 ΔcydB nuoB appB::kan); whole cells (A3) or membranes isolated from them (A7)
T1 sequence (P0ABI8 whole entry): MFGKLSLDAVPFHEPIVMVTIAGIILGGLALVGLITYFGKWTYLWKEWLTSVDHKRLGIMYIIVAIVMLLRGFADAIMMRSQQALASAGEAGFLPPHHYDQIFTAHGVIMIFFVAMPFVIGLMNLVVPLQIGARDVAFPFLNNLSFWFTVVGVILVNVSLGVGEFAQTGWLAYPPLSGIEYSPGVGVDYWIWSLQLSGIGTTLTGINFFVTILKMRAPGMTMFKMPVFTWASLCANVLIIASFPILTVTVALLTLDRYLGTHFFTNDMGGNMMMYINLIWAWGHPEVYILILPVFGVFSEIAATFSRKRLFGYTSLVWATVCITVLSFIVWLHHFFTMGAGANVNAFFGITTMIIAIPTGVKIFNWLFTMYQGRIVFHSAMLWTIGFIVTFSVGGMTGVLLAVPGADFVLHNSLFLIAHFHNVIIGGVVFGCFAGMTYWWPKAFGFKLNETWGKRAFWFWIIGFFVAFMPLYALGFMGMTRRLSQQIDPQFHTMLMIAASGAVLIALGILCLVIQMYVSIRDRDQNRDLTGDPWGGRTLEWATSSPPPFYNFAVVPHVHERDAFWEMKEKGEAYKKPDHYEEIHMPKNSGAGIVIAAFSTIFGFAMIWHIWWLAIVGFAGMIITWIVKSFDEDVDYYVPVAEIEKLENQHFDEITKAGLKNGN
T1 sequence (P0ABJ1 25-315 partner): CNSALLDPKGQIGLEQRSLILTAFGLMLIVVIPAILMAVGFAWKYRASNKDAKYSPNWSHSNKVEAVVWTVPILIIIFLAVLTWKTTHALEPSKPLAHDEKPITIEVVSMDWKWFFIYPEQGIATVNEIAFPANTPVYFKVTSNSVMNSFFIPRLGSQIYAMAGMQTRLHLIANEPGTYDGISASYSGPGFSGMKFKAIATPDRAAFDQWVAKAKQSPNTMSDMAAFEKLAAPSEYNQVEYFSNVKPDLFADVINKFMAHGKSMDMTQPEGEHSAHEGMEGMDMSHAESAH
T1 sequence (P0ABJ3 whole entry partner): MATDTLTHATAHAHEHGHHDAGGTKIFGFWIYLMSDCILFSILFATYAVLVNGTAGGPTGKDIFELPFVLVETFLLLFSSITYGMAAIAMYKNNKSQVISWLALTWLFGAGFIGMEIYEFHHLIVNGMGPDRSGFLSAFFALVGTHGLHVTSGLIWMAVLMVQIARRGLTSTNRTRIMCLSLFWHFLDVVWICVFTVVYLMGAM
T1 sequence (P0ABJ6 whole entry partner): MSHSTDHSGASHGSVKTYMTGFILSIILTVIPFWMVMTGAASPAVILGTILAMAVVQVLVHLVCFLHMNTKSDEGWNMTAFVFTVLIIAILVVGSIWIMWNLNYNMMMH
Procedure: (§1) The CO and N2 gases were purchased from Linde (Danbury, CT, USA) and Air Liquide (Air Liquide Italia Spa, Milano, Italy), respectively. Other chemicals were purchased from Merck KGaA (Darmstadt, Germany). A stock solution of CO or N2 was prepared by equilibrating degassed water with the pure gas at 1 atm and room temperature, yielding 1 mM CO and 0.7 mM N2 in solution. E. coli respiratory mutant strains TBE025 (MG1655 ΔcydB nuoB appB::kan), TBE026 (MG1655 ΔcydB nuoB cyoB::kan), and TBE037 (MG1655 ΔappB nuoB cyoB::kan), which respectively express cytochrome bo3, cytochrome bd-II, or cytochrome bd-I as the sole terminal oxidase, were used. E. coli cultures were grown in Luria–Bertani (LB) medium supplemented with 30 μg/mL kanamycin, at 37 °C and 200 rpm. In the case of growth studies, after inoculation at an OD600 of 0.15 ± 0.03, the cells were grown in 50 mL rubber-stoppered flasks in 16 mL of air-equilibrated LB at 37 °C for 60 min; when OD600 reached 0.4 ± 0.08, they were bubbled for 30 s with either CO (pure gas at 1 atm and room temperature) or N2 (pure gas at 1 atm and room temperature) as a control to yield a final concentration of both gases of ~20%. The gas percentage was assessed by taking into account the different O2 concentrations, present in equal volumes of LB equilibrated with air or flushed with CO/N2 for 30 s, and calculated according to the following equation: Gas % = ([O2] air equilibrated − [O2] gas flushed)/[O2] air equilibrated × 100. [O2] air equilibrated and [O2] gas flushed are the O2 concentration values measured in the degassed chamber of a high-resolution respirometer (Oxygraph-2k, Oroboros Instruments GmbH, Innsbruck, Austria) of non-fluxed and fluxed E. coli cultures with CO or N2, respectively. The growth of the E. coli cultures was then monitored via a standard method using optical density measurements in an Eppendorf BioSpectrometer basic at 600 nm every 30 min. When the OD600 was above 1, cultures were diluted before reading.
Oxygraphic measurements were performed at 25 °C in 50 mM K/phosphate pH 7.0, using a high-resolution respirometer (Oxygraph-2k, Oroboros Instruments GmbH, Innsbruck, Austria) equipped with two 1.5-mL chambers. The O2 consumption of E. coli cells was followed with endogenous reductants. In the case of isolated membranes, O2 consumption was measured in the presence of 2.5 mM dithiothreitol (DTT) and 2.5 μM 2,3-dimethoxy-5-methyl-6-(3-methyl-2-butenyl)-1,4-benzoquinone (Q1), an artificial reducing couple specific for quinol oxidases. The catalytic O2-consuming activity was obtained by subtracting the non-enzymatic O2 consumption (Q1/DTT autoxidation in the absence of the membranes) from the O2 consumption rate measured after the addition of membranes.
UV–visible absorption spectra were recorded to estimate the amount of each terminal oxidase present in cell suspensions. For this purpose, an Agilent Cary 60 UV-Vis or a Varian Cary 300 Bio UV-Visible spectrophotometer was used.
Data analysis was carried out using software packages Origin v7.0 (OriginLab Corporation, Northampton, MA, USA) and GIM (Scientific Graphic Interactive Management System developed by A.L. Drachev in Lomonosov Moscow State University). The percentage inhibition of O2 consumption of cell suspensions (i%) was calculated using the equation i% = ((V0 − V0,i)/V0)·100, where V0 and V0,i are the initial rates in the absence and in the presence of the inhibitor (CO), respectively. The apparent IC50 values of cytochromes bd-II and bo3 for CO were estimated by plotting i% as a function of CO concentration added ([CO]0). The data were fitted to the standard hyperbolic equation i% = imax%·[CO]0/(IC50 + [CO]0) using a built-in approximation function (‘Hyperbola function’) in ‘Advanced Fitting tool’ in the Origin program. The imax% parameter is a theoretical maximum percent inhibition. […]

[2] = system: E. coli wild-type strain MG1655 cells; assay: O2 consumption of wild-type E. coli cell suspensions at high and low OD; assay type: cell-based, Escherichia coli
[3] = target: T2, cytochrome bd-I (bd-I-only E. coli membranes) (Escherichia coli, UniProt P0ABJ9); assay: O2 reductase activity of isolated bd-I-containing membranes; assay type: biochemical
T2 construct: the oxidases were in vivo conditions, i.e., integrated into native bacterial membranes; endogenous in cells; host or cells: E. coli TBE037 (MG1655 ΔappB nuoB cyoB::kan); whole cells (A1) or membranes isolated from them (A5)
T2 sequence (P0ABJ9 whole entry): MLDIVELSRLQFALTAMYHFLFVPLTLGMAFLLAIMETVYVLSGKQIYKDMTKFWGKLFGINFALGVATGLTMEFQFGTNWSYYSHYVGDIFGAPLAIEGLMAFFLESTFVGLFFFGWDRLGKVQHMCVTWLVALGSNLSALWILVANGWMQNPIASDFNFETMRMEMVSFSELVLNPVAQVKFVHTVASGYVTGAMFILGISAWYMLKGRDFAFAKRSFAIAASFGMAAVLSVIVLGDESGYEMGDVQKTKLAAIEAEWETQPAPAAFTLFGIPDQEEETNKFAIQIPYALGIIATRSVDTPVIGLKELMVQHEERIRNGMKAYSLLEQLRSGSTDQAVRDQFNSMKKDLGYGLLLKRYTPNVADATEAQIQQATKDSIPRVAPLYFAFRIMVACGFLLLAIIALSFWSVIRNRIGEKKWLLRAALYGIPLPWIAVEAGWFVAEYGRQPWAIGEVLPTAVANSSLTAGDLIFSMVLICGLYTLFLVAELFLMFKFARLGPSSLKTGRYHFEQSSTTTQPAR
T2 sequence (P0ABK2 whole entry partner): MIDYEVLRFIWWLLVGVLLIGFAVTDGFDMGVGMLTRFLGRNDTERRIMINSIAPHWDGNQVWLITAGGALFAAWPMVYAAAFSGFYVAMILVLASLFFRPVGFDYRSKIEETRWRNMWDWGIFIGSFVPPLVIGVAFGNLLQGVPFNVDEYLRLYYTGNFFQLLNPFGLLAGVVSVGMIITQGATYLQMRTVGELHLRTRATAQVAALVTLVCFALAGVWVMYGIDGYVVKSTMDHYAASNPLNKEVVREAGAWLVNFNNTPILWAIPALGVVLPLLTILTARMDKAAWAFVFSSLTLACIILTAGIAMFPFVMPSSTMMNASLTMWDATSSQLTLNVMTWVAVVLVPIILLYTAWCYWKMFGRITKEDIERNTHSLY
T2 sequence (P56100 whole entry partner): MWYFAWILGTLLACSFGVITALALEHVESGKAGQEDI
T2 sequence (A5A618 whole entry partner): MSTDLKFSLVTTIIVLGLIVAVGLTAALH
Procedure: (§2) To isolate membranes from E. coli respiratory mutants expressing only one terminal quinol oxidase (cytochrome bd-I or cytochrome bd-II or cytochrome bo3), cell cultures were grown in LB medium until an OD600 of about 2 was reached. The cells were then pelleted by centrifugation at 10,000 rpm for 10 min and washed twice in 20 mM TRIS pH 8.3 containing 0.5 mM EDTA and 5 mM MgSO4. The cells were resuspended in the same buffer containing 1 mg/mL lysozyme and incubated for two hours on ice. A spatula tip of DNAse and RNase was then added, and the cells were lysed by sonication. Cell debris was removed by centrifugation at 15,000 rpm for 10 min. Membrane fractions were collected and stored at −80 °C. The protein content was determined using the Bradford method, using the Bradford reagent (Sigma) with bovine serum albumin as standard.
(§3) Oxygraphic measurements were performed at 25 °C in 50 mM K/phosphate pH 7.0, using a high-resolution respirometer (Oxygraph-2k, Oroboros Instruments GmbH, Innsbruck, Austria) equipped with two 1.5-mL chambers. The O2 consumption of E. coli cells was followed with endogenous reductants. In the case of isolated membranes, O2 consumption was measured in the presence of 2.5 mM dithiothreitol (DTT) and 2.5 μM 2,3-dimethoxy-5-methyl-6-(3-methyl-2-butenyl)-1,4-benzoquinone (Q1), an artificial reducing couple specific for quinol oxidases. […]

[4] = target: T3, cytochrome bd-II (bd-II-only E. coli membranes) (Escherichia coli, UniProt P26459); assay: O2 reductase activity of isolated bd-II-containing membranes; assay type: biochemical
T3 construct: the oxidases were in vivo conditions, i.e., integrated into native bacterial membranes; endogenous in cells; host or cells: E. coli TBE026 (MG1655 ΔcydB nuoB cyoB::kan); whole cells (A2) or membranes isolated from them (A6)
T3 sequence (P26459 whole entry): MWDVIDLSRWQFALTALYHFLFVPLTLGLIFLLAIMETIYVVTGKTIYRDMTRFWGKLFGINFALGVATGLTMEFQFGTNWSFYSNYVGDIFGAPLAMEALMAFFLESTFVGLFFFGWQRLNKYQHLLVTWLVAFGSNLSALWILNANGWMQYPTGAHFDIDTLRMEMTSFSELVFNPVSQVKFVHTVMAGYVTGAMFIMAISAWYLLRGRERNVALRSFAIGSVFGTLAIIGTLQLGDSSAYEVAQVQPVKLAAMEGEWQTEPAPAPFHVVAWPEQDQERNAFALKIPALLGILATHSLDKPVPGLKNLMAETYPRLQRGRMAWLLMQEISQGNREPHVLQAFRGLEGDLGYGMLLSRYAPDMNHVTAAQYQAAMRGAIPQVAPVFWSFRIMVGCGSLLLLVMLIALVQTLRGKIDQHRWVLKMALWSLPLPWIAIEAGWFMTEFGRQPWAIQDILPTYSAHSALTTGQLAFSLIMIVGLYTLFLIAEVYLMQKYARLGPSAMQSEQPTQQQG
T3 sequence (P26458 whole entry partner): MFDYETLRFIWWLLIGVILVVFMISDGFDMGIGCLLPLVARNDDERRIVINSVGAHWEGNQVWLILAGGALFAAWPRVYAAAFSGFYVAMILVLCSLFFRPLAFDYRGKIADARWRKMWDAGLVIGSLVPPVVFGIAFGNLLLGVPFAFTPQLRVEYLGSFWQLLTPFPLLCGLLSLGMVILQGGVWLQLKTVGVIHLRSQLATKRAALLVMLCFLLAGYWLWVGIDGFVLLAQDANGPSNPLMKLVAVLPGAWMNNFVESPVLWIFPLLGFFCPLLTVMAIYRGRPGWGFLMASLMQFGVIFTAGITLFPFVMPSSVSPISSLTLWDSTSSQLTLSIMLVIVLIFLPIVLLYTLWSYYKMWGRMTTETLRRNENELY
T3 sequence (P24244 whole entry partner): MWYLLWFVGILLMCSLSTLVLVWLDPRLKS
Procedure: as §2, §3

[5] = target: T4, cytochrome bo3 (bo3-only E. coli membranes) (Escherichia coli, UniProt P0ABI8); assay: O2 reductase activity of isolated bo3-containing membranes; assay type: biochemical
T4 construct: the oxidases were in vivo conditions, i.e., integrated into native bacterial membranes; endogenous in cells; host or cells: E. coli TBE025 (MG1655 ΔcydB nuoB appB::kan); whole cells (A3) or membranes isolated from them (A7)
T4 sequence (P0ABI8 whole entry): as the sequence (P0ABI8 whole entry) above
T4 sequence (P0ABJ1 25-315 partner): as the sequence (P0ABJ1 25-315 partner) above
T4 sequence (P0ABJ3 whole entry partner): as the sequence (P0ABJ3 whole entry partner) above
T4 sequence (P0ABJ6 whole entry partner): as the sequence (P0ABJ6 whole entry partner) above
Procedure: as §2, §3

[6] = system: E. coli mutant strain expressing cytochrome bd-I as the sole terminal oxidase; assay: Cell growth (OD600) of bd-I-only strain in presence of CO; assay type: cell-based, Escherichia coli; details: ~20% CO added at 60 min after start of growth in air, vs ~20% N2 control
Procedure: as §1, with “E. coli cultures were grown in Luria–Bertani (LB) medium supplemented with 30 μg/mL kanamycin, at 37 °C and 200 rpm. In the case of growth studies, after inoculation at an OD600 of 0.15 ± 0.03, the cells were grown in 50 mL rubber-stoppered flasks in 16 mL of air-equilibrated LB at 37 °C for 60 min; when OD600 reached 0.4 ± 0.08, they were bubbled for 30 s with either CO (pure gas at 1 atm and room temperature) or N2 (pure gas at 1 atm and room temperature) as a control to yield a final concentration of both gases of ~20%.” left out, “When the OD600 was above 1, cultures were diluted before reading.” left out

[7] = system: E. coli mutant strain expressing cytochrome bd-II as the sole terminal oxidase; assay: Cell growth (OD600) of bd-II-only strain in presence of CO; assay type: cell-based, Escherichia coli; details: ~20% CO added at 60 min after start of growth in air, vs ~20% N2 control
Procedure: as §1, with “E. coli cultures were grown in Luria–Bertani (LB) medium supplemented with 30 μg/mL kanamycin, at 37 °C and 200 rpm. In the case of growth studies, after inoculation at an OD600 of 0.15 ± 0.03, the cells were grown in 50 mL rubber-stoppered flasks in 16 mL of air-equilibrated LB at 37 °C for 60 min; when OD600 reached 0.4 ± 0.08, they were bubbled for 30 s with either CO (pure gas at 1 atm and room temperature) or N2 (pure gas at 1 atm and room temperature) as a control to yield a final concentration of both gases of ~20%.” left out, “When the OD600 was above 1, cultures were diluted before reading.” left out

[8] = system: E. coli mutant strain expressing cytochrome bo3 as the sole terminal oxidase; assay: Cell growth (OD600) of bo3-only strain in presence of CO; assay type: cell-based, Escherichia coli; details: ~20% CO added at 60 min after start of growth in air, vs ~20% N2 control
Procedure: as §1, with “E. coli cultures were grown in Luria–Bertani (LB) medium supplemented with 30 μg/mL kanamycin, at 37 °C and 200 rpm. In the case of growth studies, after inoculation at an OD600 of 0.15 ± 0.03, the cells were grown in 50 mL rubber-stoppered flasks in 16 mL of air-equilibrated LB at 37 °C for 60 min; when OD600 reached 0.4 ± 0.08, they were bubbled for 30 s with either CO (pure gas at 1 atm and room temperature) or N2 (pure gas at 1 atm and room temperature) as a control to yield a final concentration of both gases of ~20%.” left out, “When the OD600 was above 1, cultures were diluted before reading.” left out

[9] = target: T5, cytochrome bd-II (bd-II-only E. coli cells) (Escherichia coli, UniProt P26459); set-up: method as in PMID 37515940; details: [O2] = 150 μM; cited from earlier work
T5 construct: the oxidases were in vivo conditions, i.e., integrated into native bacterial membranes; endogenous in cells; host or cells: E. coli TBE026 (MG1655 ΔcydB nuoB cyoB::kan); whole cells (A2) or membranes isolated from them (A6)
T5 sequence (P26459 whole entry): as the sequence (P26459 whole entry) above
T5 sequence (P26458 whole entry partner): as the sequence (P26458 whole entry partner) above
T5 sequence (P24244 whole entry partner): as the sequence (P24244 whole entry partner) above

[10] = target: T1, cytochrome bo3 (bo3-only E. coli cells); set-up: method as in PMID 38188931; details: [O2] = 150 μM; cited from earlier work
cytochrome bd-I heme d2+ = details: fully reduced form of the CO-bound enzyme; cited from earlier work
[11] = system: terminal oxidase operons cyoABCDE, cydABX, appCBX; set-up: method as in PMID 26907100; details: wild-type E. coli exposed to CO gas, cited from earlier work

[C-]#[O+] [CO, Carbon monoxide]
IC50 ([1]; CO added at [O2] = 100 μM): 131 ± 14 µM
IC50 ([1]; CO added at [O2] = 200 μM): 330 ± 19.6 µM
Ki ([1]; estimated from IC50 values at different [O2], assuming competitive inhibition, Km(O2) 6 µM): 8.4 ± 0.7 µM
sensitivity of O2 consumption to CO ([2]; wild-type cells harvested at high OD600 (prevalent expression of a bd-type oxidase)): low
sensitivity of O2 consumption to CO ([2]; wild-type cells harvested at low OD600 (prevalent expression of cytochrome bo3)): high
CO inhibition of O2 reductase activity of membranes [3]: relatively resistant to inhibition by CO
CO inhibition of O2 reductase activity of membranes [4]: effectively inhibits
CO inhibition of O2 reductase activity of membranes [5]: effectively inhibits
effect on cell growth [6]: a minimal effect on cell growth was observed
effect on cell growth [7]: severely impaired
effect on cell growth [8]: severely impaired
IC50 [9]: 187 ± 11.1 µM
IC50 [10]: 183 ± 13.5 µM
koff, dissociation of CO from the oxidase (cytochrome bd-I heme d2+): 6.0 ± 0.2 s⁻¹
decrease in the expression of the cyoABCDE operon ([11]; aerobic conditions): 5- to 10 fold
increase in the expression of the cydABX operon ([11]; aerobic conditions): 4 fold
changes in the expression of the appCBX operon [11]: slight
